Reference: patent US9029559B2, “Substituted 3-heteroaroylamino-propionic acid derivatives and their use as pharmaceuticals” (SANOFI, priority 2011, dated 2015)
pIC50: −log10 of the molar value. Like-named read-outs stand apart in the source and are kept apart here.

Biological target: Recombinant human cathepsin A (Homo sapiens (Human), UniProt P10619)
Assay: Cathepsin A inhibitory activity (cleavage of Bodipy FL-labeled bradykinin, microfluidic capillary electrophoresis)
Type: biochemical
Conditions: for IC50: read-out: Activity [μM] (IC50, cathepsin A inhibitory activity)
[1] = read-out: Activity (IC50, cathepsin A inhibitory activity)
[2] = read-out: Activity (IC50, cathepsin A inhibition)
[3] = read-out: Activity (Cathepsin A inhibitory activity, IC50)

Recombinant human cathepsin A, sequence (P10619 29-326): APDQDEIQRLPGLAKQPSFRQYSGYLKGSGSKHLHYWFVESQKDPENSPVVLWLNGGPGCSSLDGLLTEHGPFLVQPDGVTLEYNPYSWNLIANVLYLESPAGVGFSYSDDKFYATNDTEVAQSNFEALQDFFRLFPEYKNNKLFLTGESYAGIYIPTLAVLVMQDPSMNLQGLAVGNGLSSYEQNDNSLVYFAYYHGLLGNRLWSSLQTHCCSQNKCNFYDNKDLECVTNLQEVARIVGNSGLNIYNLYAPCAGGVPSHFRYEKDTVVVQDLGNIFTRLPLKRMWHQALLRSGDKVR
Recombinant human cathepsin A, sequence (P10619 327-480): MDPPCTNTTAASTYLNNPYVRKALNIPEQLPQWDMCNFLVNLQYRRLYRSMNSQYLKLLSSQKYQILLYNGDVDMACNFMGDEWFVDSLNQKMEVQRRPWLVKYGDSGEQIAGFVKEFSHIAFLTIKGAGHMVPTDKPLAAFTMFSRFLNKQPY
Procedure: Pharmacological Tests a) Cathepsin A Inhibitory Activity
Briefly, cathepsin A was incubated at 10 μg/ml with cathepsin L at 1 μg/ml in activation buffer (25 mM 2-(morpholin-4-yl)-ethanesulfonic acid (MES), pH 6.0, containing 5 mM dithiothreitol (DTT)) for 15 min at 37° C.
The activated cathepsin A was diluted in assay buffer (25 mM MES, pH 5.5, containing 5 mM DTT) and mixed with the test compound (dissolved in assay buffer containing (v/v) 3% DMSO) or, in the control experiments, with the vehicle in a multiple assay plate. After incubation for 15 min at room temperature, as substrate then bradykinin carrying an N-terminal ®Bodipy FL (4,4-difluoro-5,7-dimethyl-4-bora-3a,4a-diaza-s-indacene-3-propionyl) label (JPT Peptide Technologies GmbH; dissolved in assay buffer) was added to the mixture. […] After incubation for 15 min at room temperature the reaction was stopped by the addition of stop buffer (130 mM 2-(4-(2-hydroxy-ethyl)-piperazin-1-yl)-ethanesulfonic acid, pH 7.4, containing (v/v) 0.013% ®Triton X-100, 0.13% Coating Reagent 3 (Caliper Life Sciences), 6.5% DMSO and 20 μM ebelactone B (Sigma, #E0886)).
Uncleaved substrate and product were then separated by a microfluidic capillary electrophoresis on a LabChip® 3000 Drug Discovery System (12-Sipper-Chip; Caliper Life Sciences) and quantified by determination of the respective peak areas. Substrate turnover was calculated by dividing product peak area by the sum of substrate and product peak areas, and the enzyme activity and the inhibitory effect of the test compound thus quantified.

Row | SMILES | pIC50 [1] | IC50 [µM] | also measured
1 | COc1ccc(C(=O)N[C@@H](CC(=O)O)c2ccccc2F)nc1-c1cccc(F)c1 [compound 266] | 5.90 |  | 
2 | COc1ncc(C(=O)N[C@@H](CC(=O)O)c2ccccc2Cl)cc1-c1ccccc1 [compound 344, (S)-3-(2-Chloro-phenyl)-3-[(6-methoxy-5-phenyl-pyridine-3-carbonyl)-amino]-propionic acid] |  | 3.49 | 
3 | Cc1ccccc1[C@H](CC(=O)O)NC(=O)c1ccc2nc[nH]c2n1 [compound 34] | 5.29 |  | 
4 | Cc1ccccc1[C@H](CC(=O)O)NC(=O)c1cncc(-c2cccc(C)c2C)c1 [compound 116, (S)-3-{[5-(2,3-Dimethyl-phenyl)-pyridine-3-carbonyl]-amino}-3-o-tolyl-propionic acid] |  | 1.01 | 
5 | COc1ncc(C(=O)N[C@@H](CC(=O)O)c2ccccc2C)cc1-c1ccccc1C [compound 411] | 5.93 |  | 
6 | CNc1cncc(C(=O)N[C@@H](CC(=O)O)c2ccccc2C)n1 [compound 12] | 5.14 |  | 
7 | COc1ccc(F)c(-c2nc(C(=O)N[C@@H](CC(=O)O)c3ccccc3F)ccc2OC)c1 [compound 307] |  | 2.92 | 
8 | O=C(O)C[C@@H](Cc1ccccc1)NC(=O)c1cccc(-c2ccccc2F)n1 [compound 561] |  |  | pIC50 [2]: 5.27
9 | COc1ccc(C(=O)N[C@@H](CC(=O)O)c2ccccc2Cl)nc1-c1ccccc1C(=O)N(C)C [compound 454] | 5.60 |  | 
10 | Cc1ccccc1[C@H](CC(=O)O)NC(=O)c1nc(F)ccc1F [compound 53] | 5.55 |  | 
11 | COc1cccc(-c2cccc(C(=O)N[C@@H](CC(=O)O)c3ccccc3C)n2)c1 [compound 43] | 5.64 |  | 
12 | Cc1ccccc1[C@H](CC(=O)O)NC(=O)c1ncccc1F [compound 33] | 5.47 |  | 
13 | COc1ncc(C(=O)N[C@@H](CC(=O)O)c2ccccc2C)cc1-c1ccccc1F [compound 418] | 5.97 |  | 
14 | COc1ccc(C(=O)N[C@@H](CC(=O)O)c2ccc(C)cc2)nc1-c1cccc(C)c1 [compound 197] |  | 1.71 | 
15 | COc1ccc(C(=O)N[C@@H](CC(=O)O)c2ccccc2F)nc1-c1cccc(Cl)c1 [compound 265] | 5.76 |  | 
16 | Cc1ccccc1[C@H](CC(=O)O)NC(=O)c1cccc(-c2ccc(F)cc2F)n1 [compound 149] |  | 4.4 | 
17 | COc1ccc(C(=O)N[C@@H](CC(=O)O)c2ccccc2F)nc1-c1cccc(-c2ccccc2)c1 [compound 276] | 5.67 |  | 
18 | O=C(O)CC(NC(=O)c1cccc(F)n1)c1ccccc1Cl (stereo not shown) [compound 531] |  |  | pIC50 [2]: 5.12
19 | COc1cccc(-c2cc(C(=O)N[C@@H](CC(=O)O)c3ccccc3Cl)cnc2OC)c1 [compound 391] |  | 10.6 | 
20 | COc1ncc(C(=O)N[C@@H](CC(=O)O)c2ccccc2C)cc1-c1ccc(F)c(F)c1 [compound 425] | 5.05 |  | 
21 | COc1ccc(Cl)cc1-c1nc(C(=O)N[C@@H](CC(=O)O)c2ccccc2F)ccc1OC [compound 300] | 5.39 |  | 
22 | COc1ncc(C(=O)N[C@@H](CC(=O)O)c2ccccc2C)cc1-c1cccc(-c2ccccc2)c1 [compound 423] | < 5.00 |  | 
23 | COc1cc(Cl)ccc1-c1nc(C(=O)N[C@@H](CC(=O)O)c2ccccc2F)ccc1OC [compound 299] | 5.74 |  | 
24 | COc1ccc(C(=O)N[C@@H](CC(=O)O)c2ccc(C)cc2)nc1-c1ccc(F)nc1 [compound 227] | 5.12 |  | 
25 | COc1ccc(-c2nc(C(=O)N[C@@H](CC(=O)O)c3ccc(C)cc3)ccc2OC)cc1 [compound 187] |  | 4.85 | 
26 | COc1ccc(C(=O)N[C@@H](CC(=O)O)c2ccccc2Cl)nc1-c1cc(C)cc(Cl)c1 [compound 483] | 5.02 |  | 

Row | SMILES | pIC50 [1] | IC50 [µM] | also measured
27 | COc1ccccc1-c1cccc(C(=O)N[C@@H](CC(=O)O)c2ccccc2C)n1 [compound 44] | 5.92 |  | 
28 | COc1ccccc1-c1cncc(C(=O)N[C@@H](CC(=O)O)c2ccccc2C)c1 [compound 67] | 5.30 |  | 
29 | COc1ncc(C(=O)N[C@@H](CC(=O)O)c2ccccc2C)cc1-c1cccc(F)c1 [compound 414] | 5.09 |  | 
30 | COc1ccc(C(=O)N[C@@H](CC(=O)O)c2ccc(C)cc2)nc1-c1cccc(Cl)c1 [compound 193] |  | 2.74 | 
31 | COc1ncc(C(=O)N[C@@H](CC(=O)O)c2ccccc2Cl)cc1-c1ccc(F)cc1 [compound 346] |  | 8.26 | 
32 | COc1ccc(C(=O)N[C@@H](CC(=O)O)c2ccccc2Cl)nc1-c1cccc(C(F)(F)F)c1 [compound 329] |  | 3.74 | 
33 | COc1ncc(C(=O)N[C@@H](CC(=O)O)c2ccccc2Cl)cc1-c1cccc(-c2ccccc2)c1 [compound 400] | < 5.00 |  | 
34 | CCc1ccnc(C(=O)N[C@@H](CC(=O)O)c2ccccc2C)c1 [compound 18] | 5.51 |  | 
35 | Cc1ccc(-c2cccc(C(=O)N[C@@H](CC(=O)O)c3ccccc3C)n2)c(C)c1 [compound 162] |  | 1.43 | 
36 | COc1ccc(C(=O)N[C@@H](CC(=O)O)c2ccccc2Cl)nc1-c1ccnc(N2CCOCC2)c1 [compound 490] | 5.04 |  | 
37 | COc1ccc(C(=O)N[C@@H](CC(=O)O)c2ccccc2Cl)nc1-c1ccc(F)nc1 [compound 453] | 5.19 |  | 
38 | COc1ccc(C(=O)N[C@@H](CC(=O)O)c2ccccc2F)nc1-c1ccnc(N2CCOCC2)c1 [compound 321] |  | > 10 | 
39 | Cc1ccccc1[C@H](CC(=O)O)NC(=O)c1cc(N(C)C)nc(N(C)C)n1 [compound 13] | 5.00 |  | 
40 | COc1ccc(C(=O)N[C@@H](CC(=O)O)c2ccccc2C)nc1-c1cccnc1 [compound 578] |  |  | pIC50 [2]: 5.12
41 | COc1ncc(C(=O)N[C@@H](CC(=O)O)c2ccccc2Cl)cc1-c1ccc(C)cc1 [compound 388] |  | 7.12 | 
42 | Cc1ccc(-c2cncc(C(=O)N[C@@H](CC(=O)O)c3ccccc3C)c2)c(C)c1 [compound 117] |  | 5.27 | 
43 | Cc1ccccc1[C@H](CC(=O)O)NC(=O)c1cc(-c2ccccc2)ccn1 [compound 39] | 5.97 |  | 
44 | COc1ccc(C(=O)N[C@@H](CC(=O)O)c2ccccc2Cl)nc1-c1ccc2ccccc2c1 [compound 427, (S)-3-(2-Chloro-phenyl)-3-[(5-methoxy-6-naphthalen-2-yl-pyridine-2-carbonyl)-amino]-propionic acid] | 5.15 |  | 
45 | Cc1ccccc1[C@H](CC(=O)O)NC(=O)c1ccc(Oc2ccccc2)nc1 [compound 46] | 5.00 |  | 
46 | COc1ccccc1-c1cc(C(=O)N[C@@H](CC(=O)O)c2ccccc2Cl)cnc1OC [compound 394] |  | 3.76 | 
47 | COc1ccc(C(=O)N[C@@H](CC(=O)O)c2ccc(C)cc2)nc1-c1cccc(C(C)=O)c1 [compound 203] |  | 8.35 | 
48 | COc1ccc(C(=O)N[C@@H](CC(=O)O)c2ccccc2C)nc1-c1cc(F)cc(F)c1 [compound 362] |  | 1.43 | 
49 | COc1ccc(C(=O)N[C@@H](CC(=O)O)c2ccccc2F)nc1-c1ccc(C#N)s1 [compound 283] | 5.27 |  | 
50 | Cc1ccccc1[C@H](CC(=O)O)NC(=O)c1cccc(-c2cccc(C#N)c2)n1 [compound 145] |  | 7.46 | 
51 | COc1ccc(C(=O)N[C@@H](CC(=O)O)c2ccccc2Cl)nc1-c1ccc(C(F)(F)F)cc1 [compound 337] |  | 9.5 | 
52 | Cc1ccccc1[C@H](CC(=O)O)NC(=O)c1cncc(-c2ccc3c(c2)OCO3)c1 [compound 76] | 5.09 |  | 

Row | SMILES | pIC50 [1] | IC50 [µM] | also measured
53 | O=C(O)C[C@H](NC(=O)c1cccc(-c2ccccc2Cl)n1)c1cccc(Cl)c1Cl [compound 610] |  |  | pIC50 [3]: 5.63
54 | COc1ccc(C(=O)N[C@@H](CC(=O)O)c2ccccc2F)nc1-c1cccc(C(C)(C)O)c1 [compound 327] |  | 7.32 | 
55 | COc1ccc(C(=O)N[C@@H](CC(=O)O)c2ccccc2C)nc1-c1ccc(C(C)=O)cc1 [compound 361] |  | 9.24 | 
56 | COc1ccc(C(=O)NC(CC(=O)O)c2ccccc2Cl)nc1Cl (stereo not shown) [compound 550] |  |  | pIC50 [2]: 5.97
57 | COc1ccc(C(=O)N[C@@H](CC(=O)O)c2ccccc2F)nc1-c1cccc(F)c1Cl [compound 324] |  | 1.27 | 
58 | COc1ccc(C(=O)N[C@@H](CC(=O)O)c2ccccc2F)nc1-c1ccc(F)cc1 [compound 257] | 5.90 |  | 
59 | Cc1ccccc1[C@H](CC(=O)O)NC(=O)c1cccc(F)n1 [compound 48] | 5.78 |  | 
60 | COc1ccc(C(=O)N[C@@H](CC(=O)O)c2ccccc2C)nc1-c1ccc(F)c(Cl)c1 [compound 349] |  | 1.46 | 
61 | COc1ccccc1-c1cc(C(=O)N[C@@H](CC(=O)O)c2ccccc2C)cnc1OC [compound 416] | 5.47 |  | 
62 | COc1ccc(Cl)cc1-c1nc(C(=O)N[C@@H](CC(=O)O)c2ccc(C)cc2)ccc1OC [compound 233] | 5.65 |  | 
63 | COc1ccc(C(=O)N[C@@H](CC(=O)O)c2ccccc2F)nc1-c1cccnc1 [compound 284] | < 5.00 |  | 
64 | COc1ccc(C(=O)N[C@@H](CC(=O)O)c2ccc(C)cc2)nc1-c1ccc(C)cc1C [compound 224] | 5.47 |  | 
65 | COc1cccc(-c2nc(C(=O)N[C@@H](CC(=O)O)c3ccc(C)cc3)ccc2OC)c1 [compound 191] |  | 4.57 | 
66 | Cc1ccccc1[C@H](CC(=O)O)NC(=O)c1cccc(-c2cccc(Cl)c2)n1 [compound 140] |  | 1.57 | 
67 | COc1ccc(C(=O)N[C@@H](CC(=O)O)c2ccccc2Cl)nc1-c1cc(C)ccc1Cl [compound 492] |  |  | pIC50 [2]: 5.98
68 | COc1ccc(-c2cncc(C(=O)N[C@@H](CC(=O)O)c3ccccc3C)c2)cc1 [compound 57] | 4.94 |  | 
69 | Cc1ccnc(C(=O)N[C@@H](CC(=O)O)c2ccccc2C)c1 [compound 14] | 5.36 |  | 
70 | Cc1ccccc1[C@H](CC(=O)O)NC(=O)c1cc(CC(C)C)nc(N)n1 [compound 52] | 5.43 |  | 
71 | COc1ccc(C(=O)N[C@@H](CC(=O)O)c2ccccc2F)nc1-c1ccc(C)c(F)c1 [compound 290] | 5.42 |  | 
72 | Cc1ccccc1[C@H](CC(=O)O)NC(=O)c1ccc2cnccc2n1 [compound 17] | 5.51 |  | 
73 | COc1ccc(-c2cccc(C(=O)N[C@@H](CC(=O)O)c3ccccc3C)n2)cc1 [compound 45] | 5.51 |  | 
74 | COc1ccc(C(=O)N[C@@H](CC(=O)O)c2ccccc2Cl)nc1-c1cccc(F)c1 [compound 426] | 5.81 |  | 
75 | O=C(O)C[C@H](NC(=O)c1cccc(-c2ccccc2Cl)n1)c1ccccc1C(F)(F)F [compound 612] |  |  | pIC50 [3]: 5.78
76 | Cc1ccccc1[C@H](CC(=O)O)NC(=O)c1cccc(-c2cccc(F)c2C)n1 [compound 172] |  | 3.21 | 
